Source: ChEMBL document CHEMBL1157577

Biological target: T1, Progesterone receptor (Homo sapiens) (UniProt P06401)
T1 sequence (whole entry): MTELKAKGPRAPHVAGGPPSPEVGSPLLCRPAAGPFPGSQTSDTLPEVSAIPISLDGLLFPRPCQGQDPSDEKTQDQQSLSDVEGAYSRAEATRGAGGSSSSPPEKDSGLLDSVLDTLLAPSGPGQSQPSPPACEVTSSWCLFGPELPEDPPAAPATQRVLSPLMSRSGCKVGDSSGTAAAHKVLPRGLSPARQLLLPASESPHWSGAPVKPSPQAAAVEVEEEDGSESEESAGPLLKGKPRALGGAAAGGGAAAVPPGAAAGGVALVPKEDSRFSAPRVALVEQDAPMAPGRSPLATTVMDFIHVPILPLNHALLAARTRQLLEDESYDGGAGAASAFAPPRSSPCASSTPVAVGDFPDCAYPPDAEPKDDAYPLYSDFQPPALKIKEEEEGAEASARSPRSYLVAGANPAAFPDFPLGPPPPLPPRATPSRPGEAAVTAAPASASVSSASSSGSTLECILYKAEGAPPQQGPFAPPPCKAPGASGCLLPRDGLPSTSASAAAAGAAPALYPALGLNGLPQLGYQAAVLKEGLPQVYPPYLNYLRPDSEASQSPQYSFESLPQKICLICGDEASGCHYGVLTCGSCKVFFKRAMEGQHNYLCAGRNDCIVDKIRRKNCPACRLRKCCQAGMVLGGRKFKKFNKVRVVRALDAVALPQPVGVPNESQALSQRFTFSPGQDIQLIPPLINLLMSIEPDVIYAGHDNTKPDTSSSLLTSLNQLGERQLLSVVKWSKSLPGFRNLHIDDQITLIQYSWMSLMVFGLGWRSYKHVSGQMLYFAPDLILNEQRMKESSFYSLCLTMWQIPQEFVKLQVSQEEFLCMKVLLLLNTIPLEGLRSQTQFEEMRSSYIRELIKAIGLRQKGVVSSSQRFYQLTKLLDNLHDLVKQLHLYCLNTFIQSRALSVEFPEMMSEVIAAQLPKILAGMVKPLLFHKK
Experiment: Antiprogestagenic activity at progesterone receptor in human T47D cells assessed as inhibition of progesterone-induced alkaline phosphatase activity relative to mifepristone
Format: cell-based
Set-up: scale not given: the % may be the effect or the level left

Row | Compound | Activity
1 | CC#C[C@]1(O)CC[C@H]2[C@@H]3CCC4=CC(=O)CCC4=C3[C@@H](c3ccc(N(C)CCCCCC(=O)O)cc3)C[C@@]21C | 0.11%
2 | CC#C[C@]1(O)CC[C@H]2[C@@H]3CCC4=CC(=O)CCC4=C3[C@@H](c3ccc(N(C)CCC(=O)O)cc3)C[C@@]21C | 0.15%
